{"source": "PubChem BioAssay (NCI)", "note": "Several values for one entry are separate records, joined by “and”; a condition that tells them apart may be missing. Identical values can stand only once.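 1) Cells in 96-well plates. 2) Compound, 48 h, 5 concentrations. 3) Linear interpolation between surrounding doses. 4) Unreached endpoint = highest concentration. GI50 = concentration required for 50% inhibition of growth. At the TGI there is no net growth.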"}
{"tested_on": "OVCAR-5 ovarian", "experiment": "NCI tumour cell line growth inhibition, 48 h", "units": {"TGI": "µM"}}
{"compound": "CC(C)CC(C/C=C1/CC(CO)(COC(=O)C(C)(C)C)OC1=O)CC(C)C", "note": "(stereo not given)", "TGI": 24.5}
{"compound": "Cc1cccc(C2=C/C(=C(\\SS/C(C(=O)c3ccc(OCC(=O)O)c(Cl)c3Cl)=C3\\C=C(c4cccc(C)c4)SS3)C(=O)c3ccc(OCC(=O)O)c(Cl)c3Cl)SS2)c1", "TGI": "> 86.2"}
{"tested_on": "IGROV1 ovarian", "experiment": "NCI tumour cell line growth inhibition, 48 h"}
{"compound": "O=C1CCCN1c1ccccc1I(=O)=O", "GI50": "> 100 µM", "TGI": "> 100 µM"}
{"compound": "O=C(NCc1ccc(Cn2c(=O)sn(-c3ccccc3)c2=O)cc1)OCc1ccc2cccc(O)c2n1", "GI50": "0.596 µM", "TGI": "1.96 µM"}
{"compound": "COC(c1ccc(C(C)(C)C)cc1)(c1ccc(C(C)(C)C)cc1)c1ccc(C(C)(C)C)cc1", "TGI": "> 100 µM"}
{"compound": "Nc1ccccc1C(=O)/C=C/c1c(O)ccc2ccccc12", "TGI": "> 100 µM"}
{"compound": "CC(C)c1[nH]nc2c1N=C(c1ccccc1Cl)c1cc([N+](=O)[O-])ccc1N2", "GI50": "9.46 µM", "TGI": "24.4 µM"}
{"compound": "Nc1cc2c(cc1Br)[nH]c(=O)c1ccccc12", "GI50": "3.61 µM", "TGI": "23.1 µM"}
{"compound": "COc1ccc(-c2nccn2-c2ccc(OC)cc2)cc1", "GI50": "25.2 µM", "TGI": "> 82 µM"}
{"compound": "O=C(/C=C/c1ccccc1)c1ccccc1", "TGI": "> 10 µM"}
{"compound": "CC(C)[C@H](O)C(=O)N[C@@H](C)C(=O)N[C@@H]1C(=O)N(C)CCc2ccccc21", "GI50": "> 100 µM", "TGI": "> 100 µM"}
{"compound": "CC(C)=C1CCC(CN(C)C)C1=O", "note": "(stereo not given)", "TGI": "> 100 µM"}
{"compound": "COc1ccc(-c2cnnn2-c2nonc2-n2cccc2)cc1", "GI50": "0.536 µM", "TGI": "> 92.8 µM"}
{"compound": "COc1cccc(/C=N/[N-]C(=O)c2ccncc2)c1[O-].COc1cccc(/C=N/[N-]C(=O)c2ccncc2)c1[O-].[O]=[U](=[O])([OH2+])[OH2+]", "GI50": "9.59 µM", "TGI": "> 90.4 µM"}
{"compound": "ClC(Cl)=C1C(=C(Cl)Cl)C(Cl)(Cl)C1(Cl)Cl", "TGI": "18.9 µM"}
{"compound": "C#CCOc1cccc(Nc2ncnc3c(NC(=O)C=C)cccc23)c1", "GI50": "17.8 µM", "TGI": "44.9 µM"}
{"compound": "CO[C@H]1Nc2c(ccc(C)c2O)C(=O)N2C=C(/C=C/C(N)=O)C[C@@H]12", "TGI": "7.33 µM"}
{"compound": "CCNC(=O)/C(=C/c1ccc(OC)cc1)c1cc(OC)c(OC)c(OC)c1", "TGI": "> 100 µM"}
{"compound": "CCCc1cc(=O)n2c(C(=O)Nc3ccc(Cl)cc3C)c(C(=O)Nc3ccc(F)cc3)sc2n1", "GI50": "9.31 µM", "TGI": "33.6 µM"}
{"compound": "Cc1ccc(OCCOCCOCCOCCOc2ccc(C)n(O)c2=S)c(=S)n1O", "GI50": "< 0.01 µM", "TGI": "54.3 µM"}
{"compound": "N#CC(=Nc1ccccc1N(C(=O)c1ccccc1)C(=O)c1ccccc1)c1ccccc1", "TGI": "> 100 µM"}
{"compound": "COC(=O)C(=O)C(C(C)=O)C(=O)NCc1ccc(OC)c(OC)c1", "note": "(stereo not given)", "TGI": "> 100 µM"}
{"compound": "COc1ccc(-c2ccc3c(N4CCOC[C@@H]4C)nc(N4CCOC[C@@H]4C)nc3n2)cc1CO", "GI50": "0.00654 µM and < 0.01 µM", "TGI": "0.0744 µM and 0.0607 µM"}
{"compound": "CCOC(=O)NC(=O)c1cn(C(CC)COC(=O)NCCCCCCNC(=O)OCC(CC)n2cc(C(=O)NC(=O)OCC)c(=O)[nH]c2=O)c(=O)[nH]c1=O", "note": "(stereo not given)", "TGI": "> 100 µM"}
{"compound": "N[C@H](CCC(=O)N[C@@H](Cc1c[nH]c2ccccc12)C(=O)O)C(=O)O", "GI50": "> 100 µM", "TGI": "> 100 µM"}
{"compound": "COc1ccc(-c2nc(-c3cc(OC)cc(OC)c3)[nH]c2-c2ccc(OC)cc2)cc1", "GI50": "> 100 µM", "TGI": "> 100 µM"}
{"compound": "Nc1ccccc1O.O.O=C(O)C1[O][Sb][O]C1C(=O)O", "note": "(stereo not given)", "GI50": "17.6 µM", "TGI": "33.2 µM"}
{"compound": "O=C(CC(=O)C1CCOC1=O)C(=O)Nc1cccc(Cl)c1", "note": "(stereo not given)", "TGI": "> 100 µM"}
{"compound": "OC(c1cc(-c2ccc(C(F)(F)F)cc2)nc(C(F)(F)F)c1)C1CCCCN1", "note": "(stereo not given)", "GI50": "2.02 µM", "TGI": "3.1 µM and 4.89 µM"}
{"compound": "CC(C)CC(C/C=C1/CC(CO)(COC(=O)C(C)(C)C)OC1=O)CC(C)C", "note": "(stereo not given)", "TGI": "30.6 µM and 24.4 µM"}
{"compound": "Cc1cccc(C2=C/C(=C(\\SS/C(C(=O)c3ccc(OCC(=O)O)c(Cl)c3Cl)=C3\\C=C(c4cccc(C)c4)SS3)C(=O)c3ccc(OCC(=O)O)c(Cl)c3Cl)SS2)c1", "TGI": "44.8 µM"}
{"tested_on": "UACC-62 melanoma", "experiment": "NCI tumour cell line growth inhibition, 48 h", "units": {"GI50": "µM", "TGI": "µM"}}
{"compound": "O=C1CCCN1c1ccccc1I(=O)=O", "GI50": "> 100", "TGI": "> 100"}
{"compound": "O=C(NCc1ccc(Cn2c(=O)sn(-c3ccccc3)c2=O)cc1)OCc1ccc2cccc(O)c2n1", "GI50": 1.17, "TGI": 2.44}
{"compound": "COC(c1ccc(C(C)(C)C)cc1)(c1ccc(C(C)(C)C)cc1)c1ccc(C(C)(C)C)cc1", "TGI": "> 100"}
{"compound": "Nc1ccccc1C(=O)/C=C/c1c(O)ccc2ccccc12", "TGI": "> 100"}
{"compound": "CC(C)c1[nH]nc2c1N=C(c1ccccc1Cl)c1cc([N+](=O)[O-])ccc1N2", "GI50": 4.18, "TGI": "> 23.5"}
